Data: patent publication US9427468B2, “Compositions and methods for diagnosing and treating community-acquired methicillin-resistant Staphylococcus aureus” (priority 2007, dated 2016)
≈ marks a conversion by molar mass, not a printed value.

Tests used:
N315 wild-type = test: MIC by microdilution (CLSI); type: cell-based, Staphylococcus aureus
Description: (§1) The present invention was described based on a series of experiments examining the biological basis for CA-MRSA strains versus HA-MRSA strains, focusing on the role of PBPs in CA-MRSA and generally in β-lactam resistance. Experiments were first performed using mutants of various PBPs. In-frame deletion mutants of the genes encoding PBP3 (MW1504) and PBP4 (MW0604), pbp3 and pbp4 respectively, were generated in the CA-MRSA strain MW2 and in HA-MRSA strain COL using the temperature-sensitive allelic replacement vector pMAD (Arnaud, M. et al. 2004. Appl. Environ. Microbiol. 70:6887-6891). PBP4 was also deleted in the HA-MRSA strains Mu50 and N315 and in the CA-MRSA strain USA300. […] Minimum inhibitory concentrations (MICs) were determined according to the Clinical and Laboratory Standards Institute and are a standard method for defining antibiotic efficacy against different organisms. Bacteria, grown to an OD650=1, were added to cation-supplemented Mueller Hinton broth (CSMHB) to achieve a final concentration of 5×10^5 CFU/ml.
(§2) Minimum inhibitory concentrations and minimum bactericidal concentrations (MIC and MBC, respectively) were determined for each isolate in triplicate by microdilution techniques with an inoculum of 5×10^5 CFU/ml according to the Clinical and Laboratory Standards Institute guidelines. Aliquots (5 μl) from clear wells were plated onto TSA drug-free plates for the determination of MBCs, followed by incubation at 37° C. for 24 and 48 hours. For the mutant strains, each one of the three clones was tested. MIC data were reported as median values from at least three independent experiments for each antibiotic. Also, strains containing pEPSA5-based plasmids were tested with and without xylose induction, but chloramphenicol was not added to avoid interference with beta-lactam resistance evaluation. […] The correct inocula were confirmed by plating serial dilutions on agar.

MW2 ex Δpbp4 = test: MIC by microdilution (CLSI); type: cell-based, Staphylococcus aureus
Description: as §1, §2

PBP4 = details: cited from earlier work
USA300 CA-MRSA = test: Minimum bactericidal concentration (MBC); type: cell-based, Staphylococcus aureus; details: for combination: MBC of oxacillin with ¼ MIC cefoxitin
Procedure: as §2

MW2 (USA400) CA-MRSA = test: Minimum bactericidal concentration (MBC); type: cell-based, Staphylococcus aureus; details: for combination: MBC of oxacillin with ¼ MIC cefoxitin
Procedure: as §2

COL wild-type = test: MIC by microdilution (CLSI); type: cell-based, Staphylococcus aureus
Description: as §1
(§3) Although PBP4, similar to PBP2A, binds with low affinity to many β-lactams, PBP4 binds cefoxitin, a semi-synthetic β-lactam derived from cephamycin C, with high affinity (Nair, S. R. and C. E. Cherubin. 1978. Antimicrob. Agents Chemother. 14:866-875).
as §2

MW2 (USA400) wild-type = test: MIC by microdilution (CLSI); type: cell-based, Staphylococcus aureus
Description: as §1, §3, §2

USA300 wild-type = test: MIC by microdilution (CLSI); type: cell-based, Staphylococcus aureus
Description: as §1, §3, §2

[1] = system: MW2 ex (MW2 cured of plasmid pMW2); test: MIC by microdilution (CLSI); type: cell-based; details: Staphylococcus aureus, Table 1
Description: as §1, with “Experiments” for “The present invention was described based on a series of experiments examining the biological basis for CA-MRSA strains versus HA-MRSA strains, focusing on the role of PBPs in CA-MRSA and generally in β-lactam resistance. Experiments”
as §2

MW2 ex Δpbp3 = test: MIC by microdilution (CLSI); type: cell-based; details: Staphylococcus aureus, read-out: MICs
Description: as §1, with “Experiments” for “The present invention was described based on a series of experiments examining the biological basis for CA-MRSA strains versus HA-MRSA strains, focusing on the role of PBPs in CA-MRSA and generally in β-lactam resistance. Experiments”
as §2

MW2 Δpbp4 = test: MIC by microdilution (CLSI); type: cell-based, Staphylococcus aureus
Description: as §1, §2

MW2 Δpbp4::pbp4 = test: MIC by microdilution (CLSI); type: cell-based, Staphylococcus aureus; details: Table 1; MW2 Δpbp4::pbp4 (complemented)
Description: as §1, §2

USA300 Δpbp4 = test: MIC by microdilution (CLSI); type: cell-based, Staphylococcus aureus
Description: as §1, §2

USA300 Δpbp4::pbp4 = test: MIC by microdilution (CLSI); type: cell-based, Staphylococcus aureus; details: Table 1; USA300 Δpbp4::pbp4 (complemented)
Description: as §1, §2

MW2 Δpbp3/4 = test: MIC by microdilution (CLSI); type: cell-based, Staphylococcus aureus; details: Table 1, MW2 Δpbp3/4
Description: as §1, §2

MW2 Δpbp3 = test: MIC by microdilution (CLSI); type: cell-based, Staphylococcus aureus; details: Table 1; MW2 Δpbp3
Description: as §1, §2

COL HA-MRSA = test: Minimum bactericidal concentration (MBC); type: cell-based, Staphylococcus aureus; details: for combination: MBC of oxacillin with ¼ MIC cefoxitin
Procedure: as §2

MRSA252 HA-MRSA [2] = test: Minimum bactericidal concentration (MBC); type: cell-based, Staphylococcus aureus; details: for combination: MBC of oxacillin with ¼ MIC cefoxitin
Procedure: as §2

Mu50 HA-MRSA/VISA = test: Minimum bactericidal concentration (MBC); type: cell-based, Staphylococcus aureus; details: for combination: MBC of oxacillin with ¼ MIC cefoxitin
Procedure: as §2

MRSA252 HA-MRSA [3] = test: MIC and synergy assay; type: cell-based, Staphylococcus aureus; details: for combination: MIC of oxacillin with ¼ MIC cefoxitin
Procedure: as §2

[4] = Staphylococcus aureus, read-out: MICs

CO[C@@]1(NC(=O)Cc2cccs2)C(=O)N2C(C(=O)O)=C(COC(N)=O)CS[C@@H]21 [CX, cefoxitin]
MIC (N315 wild-type; [4]): 64 µg/mL (≈ 150 µM) | MIC (MW2 ex Δpbp4; [4]): 16 µg/mL (≈ 37.4 µM) | affinity for PBP4 (PBP4): high affinity | MBC 48 hr (USA300 CA-MRSA): > 256 µg/mL | MBC 48 hr (MW2 (USA400) CA-MRSA): > 256 µg/mL | MIC (COL wild-type; [4]): 128 µg/mL (≈ 299 µM) | MIC (MW2 (USA400) wild-type; Staphylococcus aureus, USA400, read-out: MICs): 64 µg/mL (≈ 150 µM) | MIC (USA300 wild-type; Staphylococcus aureus, USA300, read-out: MICs): 64 µg/mL (≈ 150 µM) | MIC [1]: 16 µg/mL (≈ 37.4 µM) | MIC (MW2 ex Δpbp3): 32 µg/mL (≈ 74.9 µM)

Cc1onc(-c2ccccc2)c1C(=O)N[C@@H]1C(=O)N2[C@@H]1SC(C)(C)[C@@H]2C(=O)O [OX, oxacillin]
MICs (N315 wild-type; Table 1, N315 wild-type): 256 µg/mL | reduction in MIC on loss of pbp4 (MW2 Δpbp4; MW2 Δpbp4 versus MW2): 16 fold | MICs (MW2 Δpbp4; Table 1, MW2 Δpbp4): 4 µg/mL | MICs (MW2 Δpbp4; pbp4 mutant of MW2 with pbp2 expressed from inducible plasmid pEPSA5): 4 µg/mL | reduction in oxacillin MIC for the pbp4 mutant (MW2 ex Δpbp4; MW2 ex Δpbp4 versus MW2 ex): 64 fold | MICs (MW2 ex Δpbp4; Table 1, MW2 ex Δpbp4): 2 µg/mL | MICs (MW2 Δpbp4::pbp4): 64 µg/mL | MICs (USA300 Δpbp4; Table 1, USA300 Δpbp4): 4 µg/mL | reduction in MIC on loss of pbp4 (USA300 Δpbp4; USA300 Δpbp4 versus USA300): 16 fold | MICs (USA300 Δpbp4; pbp4 mutant of USA300 with pbp2 expressed from inducible plasmid pEPSA5): 4 µg/mL | MICs (USA300 Δpbp4::pbp4): 64 µg/mL | MICs (MW2 Δpbp3/4): 4 µg/mL | MICs (MW2 Δpbp3/4; listed as oxacillin): 1 µg/mL | MICs (MW2 Δpbp3): 64 µg/mL | MBC 48 hr (USA300 CA-MRSA): 256 µg/mL | MBC 48 hr (COL HA-MRSA): >256 µg/mL | MBC 48 hr (MW2 (USA400) CA-MRSA): 256 µg/mL | MBC 48 hr (MRSA252 HA-MRSA [2]): >256 µg/mL | MBC 48 hr (Mu50 HA-MRSA/VISA): >256 µg/mL | MICs 48 hr (COL wild-type; COL, 48 hr, for combination: MIC of oxacillin with ¼ MIC cefoxitin): 256 µg/mL | MICs (COL wild-type; Table 1, COL wild-type): 256 µg/mL | MICs 48 hr (MW2 (USA400) wild-type; MW2, 48 hr, for combinations: MIC of oxacillin with ¼ MIC of second drug): 64 µg/mL | MICs (MW2 (USA400) wild-type; Table 1, MW2 (USA400) wild-type): 64 µg/mL | MICs (USA300 wild-type; Table 1, USA300 wild-type): 64 µg/mL | MICs 48 hr (USA300 wild-type; USA300, 48 hr, for combinations: MIC of oxacillin with ¼ MIC of second drug): 64 µg/mL | MICs 48 hr (MRSA252 HA-MRSA [3]): 256 µg/mL
